Measurements: US4496551A (priority 1983, dated 1985)

The compounds below were run on Pyricularia oryzae (assay: whole plant or invertebrate). Settings: 168 h, read-out: % Control of Rice Blast.
Format: in vivo

Row | Compound | pest or weed control at 100 ppm
1 | CCCC[Si](C)(Cn1ccnc1)c1ccc(-c2ccccc2)cc1 (stereo not shown) [(1,1'-Biphenyl-4-yl)butyl(1H-imidazol-1-ylmethyl)methylsilane] | 90%
2 | C[Si](C)(Cn1ccnc1)c1ccccc1Cl [(2-Chlorophenyl)(1H-imidazol-1-ylmethyl)dimethylsilane] | 0%
3 | C[Si](C)(Cn1ccnc1)c1ccc(Cl)cc1 [(4-Chlorophenyl)dimethyl(1H-imidazol-1-ylmethyl)silane] | 0%
4 | CCCC[Si](C)(Cn1ccnc1)c1ccc(F)cc1 (stereo not shown) [Butyl(4-fluorophenyl)(1H-imidazol-1-ylmethyl)methylsilane] | 100%
5 | C[Si](C)(Cn1ccnc1)c1cccc(C(F)(F)F)c1 [Dimethyl(1H-imidazol-1-ylmethyl)(3-trifluoromethylphenyl)silane] | 0%

The compounds below were run on Pythium aphanadermatum (assay: Pythium control on coated cotton seeds). Settings: 168 h, 0.5 gm/kg seed.
Format: in vivo
Excerpt: Several compounds of the previous examples were incorporated into a proprietary formulation and used to coat cotton seeds at a rate of 2 gm/kg seed. After being thoroughly coated, the seeds were allowed to air dry at room temperature. The cotton seeds were then planted into soil amended with the fungus Pythium aphanadermatum, sand, and corn meal at a rate sufficient to kill most untreated seeds. The seeds were held at room temperature for 1 week, after which time disease ratings were made.

Row | Compound | pest or weed control at 500 mg/kg
6 | C[Si](C)(Cn1ccnc1)c1ccc(Cl)cc1 [(4-Chlorophenyl)dimethyl(1H-imidazol-1-ylmethyl)silane] | 18%

Same assay, conditions: 168 h, 2 gm/kg seed, 1 week

Row | Compound | pest or weed control at 2000 mg/kg
7 | CCCC[Si](C)(Cn1ccnc1)c1ccc(-c2ccccc2)cc1 (stereo not shown) [(1,1'-Biphenyl-4-yl)butyl(1H-imidazol-1-ylmethyl)methylsilane] | 0%
8 | C[Si](C)(Cn1ccnc1)c1ccccc1Cl [(2-Chlorophenyl)(1H-imidazol-1-ylmethyl)dimethylsilane] | 0%
9 | CCCC[Si](C)(Cn1ccnc1)c1ccc(F)cc1 (stereo not shown) [Butyl(4-fluorophenyl)(1H-imidazol-1-ylmethyl)methylsilane] | 0%
10 | C[Si](C)(Cn1ccnc1)c1cccc(C(F)(F)F)c1 [Dimethyl(1H-imidazol-1-ylmethyl)(3-trifluoromethylphenyl)silane] | 0%

The compounds below were run on Helminthosporium maydis (assay: southern corn leaf blight control on corn seedlings). Settings: Bipolaris maydis, 168 h.
Format: in vivo
Experimental: Compounds of the previous example were again dissolved in acetone in an amount equal to 6% of the final volume and then suspended at a concentration of 100 ppm in purified water containing 250 ppm of the surfactant TREM 014 (polyhydric alcohol esters). This suspension was sprayed to the point of run-off on corn seedlings. The following day, the plants were inoculated with a spore suspension of Helminthosporium maydis, causal agent of southern corn leaf blight, and incubated in a saturated humidity chamber at 20° for 24 hours and then in a growth room for an additional 7 days, when disease ratings were made. Treated plants from successful treatments had few lesions while the untreated plants had numerous lesions on each leaf.

Row | Compound | pest or weed control at 100 ppm
11 | CCCC[Si](C)(Cn1ccnc1)c1ccc(-c2ccccc2)cc1 (stereo not shown) [(1,1'-Biphenyl-4-yl)butyl(1H-imidazol-1-ylmethyl)methylsilane] | 0%
12 | C[Si](C)(Cn1ccnc1)c1ccccc1Cl [(2-Chlorophenyl)(1H-imidazol-1-ylmethyl)dimethylsilane] | 0%
13 | C[Si](C)(Cn1ccnc1)c1ccc(Cl)cc1 [(4-Chlorophenyl)dimethyl(1H-imidazol-1-ylmethyl)silane] | 0%
14 | CCCC[Si](C)(Cn1ccnc1)c1ccc(F)cc1 (stereo not shown) [Butyl(4-fluorophenyl)(1H-imidazol-1-ylmethyl)methylsilane] | 0%
15 | C[Si](C)(Cn1ccnc1)c1cccc(C(F)(F)F)c1 [Dimethyl(1H-imidazol-1-ylmethyl)(3-trifluoromethylphenyl)silane] | 0%

What follows are compounds tested on Cercospora arachidicola (assay: peanut early leafspot control on peanut seedlings). Settings: Mycosphaerella arachidis, 336 h.
Format: in vivo
Experimental: Compounds of the previous examples were again dissolved in acetone in an amount equal to 6% of the final volume and then suspended at a concentration of 100 ppm in purified water containing 250 ppm of the surfactant TREM 014 (polyhydric alcohol esters). This suspension was sprayed to the point of run-off on peanut seedlings. The following day, the plants were inoculated with a spore suspension of Cercospora arachidicola, causal agent of peanut early leafspot, and incubated in a saturated humidity chamber at 27° for 24 hours and then in a growth room for an additional 14 days, when disease ratings were made. Treated plants from successful treatments had few or no leafspots while the untreated plants had numerous leafspots on each leaf.

Row | Compound | pest or weed control at 100 ppm
16 | CCCC[Si](C)(Cn1ccnc1)c1ccc(-c2ccccc2)cc1 (stereo not shown) [(1,1'-Biphenyl-4-yl)butyl(1H-imidazol-1-ylmethyl)methylsilane] | 90%
17 | C[Si](C)(Cn1ccnc1)c1ccccc1Cl [(2-Chlorophenyl)(1H-imidazol-1-ylmethyl)dimethylsilane] | 80%
18 | C[Si](C)(Cn1ccnc1)c1ccc(Cl)cc1 [(4-Chlorophenyl)dimethyl(1H-imidazol-1-ylmethyl)silane] | 0%
19 | CCCC[Si](C)(Cn1ccnc1)c1ccc(F)cc1 (stereo not shown) [Butyl(4-fluorophenyl)(1H-imidazol-1-ylmethyl)methylsilane] | 0%
20 | C[Si](C)(Cn1ccnc1)c1cccc(C(F)(F)F)c1 [Dimethyl(1H-imidazol-1-ylmethyl)(3-trifluoromethylphenyl)silane] | 50%

Each compound was assayed on Pythium aphanadermatum (assay: Pythium control on coated corn seeds). Settings: 504 h, 2 gm/kg seed, 49° F. 2 weeks then 70° F. 1 week.
Format: in vivo
Experimental: Several compounds of the previous examples were incorporated into a proprietary formulation and used to coat corn seeds at a rate of 2 gm/kg seed. After being thoroughly coated, the seeds were allowed to air dry at room temperature. The seeds were then planted into soil amended with a mixture of the fungus Pythium aphanadermatum, sand, and corn meal at a rate sufficient to kill most untreated seeds. The seeds were held at 49° F. for 2 weeks and then at 70° F. for 1 additional week. After this time disease ratings were made.

Row | Compound | pest or weed control at 2000 mg/kg
21 | CCCC[Si](C)(Cn1ccnc1)c1ccc(-c2ccccc2)cc1 (stereo not shown) [(1,1'-Biphenyl-4-yl)butyl(1H-imidazol-1-ylmethyl)methylsilane] | 0%
22 | C[Si](C)(Cn1ccnc1)c1ccc(Cl)cc1 [(4-Chlorophenyl)dimethyl(1H-imidazol-1-ylmethyl)silane] | 25%
23 | CCCC[Si](C)(Cn1ccnc1)c1ccc(F)cc1 (stereo not shown) [Butyl(4-fluorophenyl)(1H-imidazol-1-ylmethyl)methylsilane] | 0%
24 | C[Si](C)(Cn1ccnc1)c1cccc(C(F)(F)F)c1 [Dimethyl(1H-imidazol-1-ylmethyl)(3-trifluoromethylphenyl)silane] | 0%

What follows are compounds tested on Venturia inaequalis (assay: apple scab control on apple seedlings). Settings: Venturia inaequalis; 100 ppm.
Format: in vivo
Experimental: Compounds of this invention were dissolved in acetone in an amount equal to 6% of the final volume and then suspended at a concentration of 100 ppm in purified water containing 250 ppm of the surfactant TREM 014 (polyhydric alcohol esters). This suspension was sprayed to the point of run-off on apple seedlings. The following day, the plants were inoculated with a spore suspension of the fungus Venturia inaequalis, causal agent of apple scab, and incubated in a saturated humidity chamber at 20° for 24 hours and then in a growth room for an additional 10-12 days. Treated plants from successful treatments had few or no apple scab lesions when compared to untreated plants which were covered with scab lesions.

Row | Compound | pest or weed control at 100 ppm
25 | CCCC[Si](C)(Cn1ccnc1)c1ccc(-c2ccccc2)cc1 (stereo not shown) [(1,1'-Biphenyl-4-yl)butyl(1H-imidazol-1-ylmethyl)methylsilane] | 100%
26 | C[Si](C)(Cn1ccnc1)c1ccccc1Cl [(2-Chlorophenyl)(1H-imidazol-1-ylmethyl)dimethylsilane] | 90%
27 | C[Si](C)(Cn1ccnc1)c1ccc(Cl)cc1 [(4-Chlorophenyl)dimethyl(1H-imidazol-1-ylmethyl)silane] | 0%
28 | CCCC[Si](C)(Cn1ccnc1)c1ccc(F)cc1 (stereo not shown) [Butyl(4-fluorophenyl)(1H-imidazol-1-ylmethyl)methylsilane] | 80%
29 | C[Si](C)(Cn1ccnc1)c1cccc(C(F)(F)F)c1 [Dimethyl(1H-imidazol-1-ylmethyl)(3-trifluoromethylphenyl)silane] | 0%

What follows are compounds tested on Puccinia recondita var. tritici (assay: wheat leaf rust control on wheat seedlings). Settings: 100 ppm, sprayed day before inoculation.
Format: in vivo
Experimental: Compounds of this invention were dissolved in acetone in an amount equal to 6% of the final volume and then suspended at a concentration of 100 ppm in purified water containing 250 ppm of the surfactant TREM 014 (polyhydric alcohol esters). This suspension was sprayed to the point of run-off on wheat seedlings. The following day, the plants were inoculated with a spore suspension of Puccinia recondita var. tritici, causal agent of wheat leaf rust, and incubated in a saturated humidity chamber at 20° for 24 hours and then in a growth room for an additional 7 days, when disease ratings were made. Treated plants from successful treatments had few or no rust pustules while the untreated plants had numerous rust pustules on each leaf.

Row | Compound | pest or weed control at 100 ppm
30 | CCCC[Si](C)(Cn1ccnc1)c1ccc(-c2ccccc2)cc1 (stereo not shown) [(1,1'-Biphenyl-4-yl)butyl(1H-imidazol-1-ylmethyl)methylsilane] | 100%
31 | C[Si](C)(Cn1ccnc1)c1ccccc1Cl [(2-Chlorophenyl)(1H-imidazol-1-ylmethyl)dimethylsilane] | 0%
32 | C[Si](C)(Cn1ccnc1)c1ccc(Cl)cc1 [(4-Chlorophenyl)dimethyl(1H-imidazol-1-ylmethyl)silane] | 50%
33 | CCCC[Si](C)(Cn1ccnc1)c1ccc(F)cc1 (stereo not shown) [Butyl(4-fluorophenyl)(1H-imidazol-1-ylmethyl)methylsilane] | 0%
34 | C[Si](C)(Cn1ccnc1)c1cccc(C(F)(F)F)c1 [Dimethyl(1H-imidazol-1-ylmethyl)(3-trifluoromethylphenyl)silane] | 0%

Each compound was assayed on Erysiphe cichoracearum (assay: cucumber powdery mildew control on cucumber seedlings). Settings: Golovinomyces cichoracearum, 168 h, 7 days.
Format: in vivo
Experimental: Compounds of the previous examples were again dissolved in acetone in an amount equal to 6% of the final volume and then suspended at a concentration of 100 ppm in purified water containing 250 ppm of the surfactant TREM 014 (polyhydric alcohol esters). This suspension was sprayed to the point of run-off on cucumber seedlings. The following day, the plants were inoculated with a spore suspension of the fungus Erysiphe cichoracearum, causal agent of cucumber powdery mildew, and incubated in a growth room for 7 days. Disease ratings were then made. Treated plants from successful treatments had little or no powdery mildew in contrast to untreated plants which were covered with powdery mildew.

Row | Compound | pest or weed control at 100 ppm
35 | CCCC[Si](C)(Cn1ccnc1)c1ccc(-c2ccccc2)cc1 (stereo not shown) [(1,1'-Biphenyl-4-yl)butyl(1H-imidazol-1-ylmethyl)methylsilane] | 100%
36 | C[Si](C)(Cn1ccnc1)c1ccccc1Cl [(2-Chlorophenyl)(1H-imidazol-1-ylmethyl)dimethylsilane] | 100%
37 | C[Si](C)(Cn1ccnc1)c1ccc(Cl)cc1 [(4-Chlorophenyl)dimethyl(1H-imidazol-1-ylmethyl)silane] | 100%
38 | CCCC[Si](C)(Cn1ccnc1)c1ccc(F)cc1 (stereo not shown) [Butyl(4-fluorophenyl)(1H-imidazol-1-ylmethyl)methylsilane] | 100%
39 | C[Si](C)(Cn1ccnc1)c1cccc(C(F)(F)F)c1 [Dimethyl(1H-imidazol-1-ylmethyl)(3-trifluoromethylphenyl)silane] | 80%

Each compound was assayed on Rhizoctonia solani (assay: rice sheath blight control on rice seedlings). Settings: Rhizoctonia solani, 168 h, 7 days.
Format: in vivo
Experimental: Several compounds of the previous examples were again dissolved in acetone in an amount equal to 6% of the final volume and then suspended at a concentration of 100 ppm in purified water containing 250 ppm of the surfactant TREM 014 (polyhydric alcohol esters). This suspension was sprayed to the point of run-off on rice seedlings. The following day, the plants were inoculated with a mixture of bran and the mycelium of Rhizoctonia solani, causal agent of sheath blight of rice, and incubated in a growth room for 7 days. Disease ratings were then made. Treated plants from successful treatments had little sheath blight in contrast to untreated plants which were covered with sheath blight.

Row | Compound | pest or weed control at 100 ppm
40 | CCCC[Si](C)(Cn1ccnc1)c1ccc(-c2ccccc2)cc1 (stereo not shown) [(1,1'-Biphenyl-4-yl)butyl(1H-imidazol-1-ylmethyl)methylsilane] | 90%
41 | C[Si](C)(Cn1ccnc1)c1ccccc1Cl [(2-Chlorophenyl)(1H-imidazol-1-ylmethyl)dimethylsilane] | 0%
42 | C[Si](C)(Cn1ccnc1)c1ccc(Cl)cc1 [(4-Chlorophenyl)dimethyl(1H-imidazol-1-ylmethyl)silane] | 0%
43 | CCCC[Si](C)(Cn1ccnc1)c1ccc(F)cc1 (stereo not shown) [Butyl(4-fluorophenyl)(1H-imidazol-1-ylmethyl)methylsilane] | 80%
44 | C[Si](C)(Cn1ccnc1)c1cccc(C(F)(F)F)c1 [Dimethyl(1H-imidazol-1-ylmethyl)(3-trifluoromethylphenyl)silane] | 0%

The compounds below were run on Phytophthora infestans (assay: whole plant or invertebrate). Settings: Phytophthora infestans, in Solanum lycopersicum, 168 h, read-out: % Control of Tomato Late Blight.
Format: in vivo

Row | Compound | pest or weed control at 100 ppm
45 | CCCC[Si](C)(Cn1ccnc1)c1ccc(-c2ccccc2)cc1 (stereo not shown) [(1,1'-Biphenyl-4-yl)butyl(1H-imidazol-1-ylmethyl)methylsilane] | 0%
46 | C[Si](C)(Cn1ccnc1)c1ccccc1Cl [(2-Chlorophenyl)(1H-imidazol-1-ylmethyl)dimethylsilane] | 0%
47 | C[Si](C)(Cn1ccnc1)c1ccc(Cl)cc1 [(4-Chlorophenyl)dimethyl(1H-imidazol-1-ylmethyl)silane] | 0%
48 | CCCC[Si](C)(Cn1ccnc1)c1ccc(F)cc1 (stereo not shown) [Butyl(4-fluorophenyl)(1H-imidazol-1-ylmethyl)methylsilane] | 0%
49 | C[Si](C)(Cn1ccnc1)c1cccc(C(F)(F)F)c1 [Dimethyl(1H-imidazol-1-ylmethyl)(3-trifluoromethylphenyl)silane] | 70%
